Literature values as cited in patent US20200022949A1, “COMPOSITION AND METHOD FOR THE ALLEVIATION OF EFFECTS OF ALCOHOL CONSUMPTION” (Detoxicated Inc., priority 2018, published 2020).

System: non-alcoholic fatty liver disease
Settings: patients with non-alcoholic fatty liver disease

O=C1c2c(O)cc(O)cc2O[C@H](c2cc(O)c(O)c(O)c2)[C@H]1O [DHM, dihydromyricetin]
liver health (levels of liver enzymes and inflammatory cytokines): improve liver health
